# Measured values from patent publication US11872222B2, “Uses” (NeRRe Therapeutics Limited, priority 2020, dated 2024).
# Columns and labels:
# [1] = test system: VILI mouse model of mechanical injury to the lungs; assay: VILI mouse model: bronchoalveolar lavage fluid (BAL) markers; type: in vivo; details: male C57/BL6 mice, oral 250 mg/kg pre-treatment, high tidal volume ventilation; FIG. 3
# Experimental: (§1) Orvepitant was evaluated in a VILI mouse model of mechanical injury to the lungs. Male C57/BL6 mice were pre-treated with oral orvepitant (250 mg/kg) or vehicle control (10 ml/kg, 0.1% tween 80:0.5% hydroxypropyl methylcellulose [HPMC]), approximately 30 minutes before initiation of experimental ventilation. Mice were anesthetized and tracheotomised for ventilation. The left carotid artery was cannulated to monitor blood pressure (BP), infuse heparinised saline (0.4 ml/hr of 10 units/ml of heparin), and measure sequential blood gas analyses. Airway pressure was monitored continuously, while respiratory mechanics including respiratory resistance (Rrs) and elastance (Ers), were measured at predetermined intervals by end-inflation occlusion. Vehicle-treated or orvepitant-treated animals were ventilated with high tidal volume (33-37 ml/kg) for up to 150 minutes or until a mortality surrogate (increase of >25% peak inspiratory pressure) was reached. As a control group, vehicle-treated animals only were ventilated with low tidal volume (8-9 ml/kg) to confirm the impact of injurious ventilation. Following termination, bronchoalveolar lavage fluid (BAL) was collected for analysis and lungs were processed for flow cytometric evaluation of leukocyte numbers and expression of ICAM-1 on alveolar macrophages and epithelial cells. Data were evaluated for normality by Shapiro-Wilk test of residuals and QQ plots. Normally distributed data were evaluated by t-test for end-point analysis, or 2-way ANOVA for time courses. Non-normally distributed data were evaluated by Mann-Whitney U test. N=6-7 animals for each dataset. Bronchoalveolar lavage fluid (BAL) markers. BAL total protein concentration was measured as a marker of alveolar-epithelial barrier permeability.
# [2] = test system: VILI mouse model of mechanical injury to the lungs; assay: VILI mouse model: physiological variables (peak inspiratory pressure, elastance); type: in vivo, mice
# Experimental: Orvepitant was evaluated in a VILI mouse model of mechanical injury to the lungs.
# Male C57/BL6 mice were pre-treated with oral orvepitant (250 mg/kg) or vehicle control (10 ml/kg, 0.1% tween 80:0.5% hydroxypropyl methylcellulose [HPMC]), approximately 30 minutes before initiation of experimental ventilation.
# Mice were anesthetized and tracheotomised for ventilation. The left carotid artery was cannulated to monitor blood pressure (BP), infuse heparinised saline (0.4 ml/hr of 10 units/ml of heparin), and measure sequential blood gas analyses. Airway pressure was monitored continuously, while respiratory mechanics including respiratory resistance (Rrs) and elastance (Ers), were measured at predetermined intervals by end-inflation occlusion. Vehicle-treated or orvepitant-treated animals were ventilated with high tidal volume (33-37 ml/kg) for up to 150 minutes or until a mortality surrogate (increase of >25% peak inspiratory pressure) was reached. As a control group, vehicle-treated animals only were ventilated with low tidal volume (8-9 ml/kg) to confirm the impact of injurious ventilation. Following termination, bronchoalveolar lavage fluid (BAL) was collected for analysis and lungs were processed for flow cytometric evaluation of leukocyte numbers and expression of ICAM-1 on alveolar macrophages and epithelial cells.
# Data were evaluated for normality by Shapiro-Wilk test of residuals and QQ plots. Normally distributed data were evaluated by t-test for end-point analysis, or 2-way ANOVA for time courses. Non-normally distributed data were evaluated by Mann-Whitney U test. N=6-7 animals for each dataset.
# [3] = test system: VILI mouse model of mechanical injury to the lungs; assay: VILI mouse model: flow cytometric analyses of lung cell suspensions (leukocyte numbers, ICAM-1 surface expression); type: in vivo; details: male C57/BL6 mice, oral 250 mg/kg pre-treatment, high tidal volume ventilation, flow cytometry, FIG. 2
# Experimental: as §1, with “Flow cytometric analyses. Lung cell suspensions were evaluated for quantification of neutrophils and Ly6C high inflammatory (Ly6CN) monocytes by flow cytometry. […] Activation of alveolar macrophages and type 1 and type 2 epithelial cells” for “Bronchoalveolar lavage fluid (BAL) markers. BAL total protein concentration”, “determined by assaying for surface expression” for “measured as a marker”, “ICAM-1.” for “alveolar-epithelial barrier permeability.”
compound,measurement,setting,value
Cc1cc(F)ccc1[C@H]1C[C@@H](N2CCN3C(=O)CC[C@H]3C2)CCN1C(=O)N(C)[C@H](C)c1cc(C(F)(F)F)cc(C(F)(F)F)c1 [orvepitant],Increase in BAL IL-6,[1],significantly attenuated
same,Increase in BAL MCP-1 [CCL-2],[1],significantly attenuated
same,Increase in BAL TGF-β,[1],significantly attenuated
same,Increase in BAL total protein concentration (marker of alveolar-epithelial barrier permeability),[1],significantly attenuated
same,Peak inspiratory pressure at the start of ventilation,"[2]; male C57/BL6 mice, oral 250 mg/kg approx. 30 min before ventilation, vs vehicle",identical between vehicle and orvepitant pre-treated animals
same,Course of peak inspiratory pressure change over time,"[2]; male C57/BL6 mice, oral 250 mg/kg pre-treatment, high tidal volume (33-37 ml/kg) ventilation up to 150 min, vs vehicle, FIG. 1",significantly different between groups
same,'End' peak inspiratory pressure (final value recorded),"[2]; male C57/BL6 mice, oral 250 mg/kg pre-treatment, high tidal volume ventilation, 150 min or mortality surrogate, vs vehicle, FIG. 1",significantly higher in vehicle-treated animals than those receiving orvepitant
same,Changes in respiratory system elastance over time,"[2]; male C57/BL6 mice, oral 250 mg/kg pre-treatment, high tidal volume ventilation, vs vehicle, FIG. 1",differences between groups did not quite achieve statistical significance
same,Mechanical lung injury induced by mechanical ventilation (overall conclusion),"[2]; mice, oral pretreatment","substantial, significant attenuation"
same,Ly6C high inflammatory monocyte numbers within lung tissue,[3]; vs vehicle,significant decrease
same,Neutrophil numbers within lung tissue,[3]; vs vehicle,significant decrease
same,Upregulation of ICAM-1 surface expression on alveolar macrophages,[3],significantly attenuated
same,Upregulation of ICAM-1 surface expression on type 1 epithelial cells,[3],significantly attenuated
same,Upregulation of ICAM-1 surface expression on type 2 epithelial cells,[3],significantly attenuated
